For seven compounds, MIC50 and MTC50 results are on record in ChEMBL document CHEMBL1131911, “Synthesis of 2-(2-adamantyl)piperidines and structure anti-influenza virus A activity relationship study using a combination of NMR spectroscopy and molecular modeling” (1999).

Converted amounts (≈) assume the structure as drawn.

The subject of experiment [1] is MDCK. Description: Anti-influenza virus activity was evaluated in Madin-Darby canine kidney (MDCK) cells against influenza A H2N2 strain (A2 Japan/305/57). The experiment is classed as functional. The following applies: Canis lupus familiaris.
Experiment [2] has as its system MDCK. Description: Anti-influenza virus activity was evaluated in Madin-Darby canine kidney (MDCK) cells against influenza A H3N2 (X31). The following applies: Canis lupus familiaris. The experiment is classed as functional.
Experiment [3] concerns MDCK. As to the kind of experiment: Anti-influenza virus activity was evaluated in Madin-Darby canine kidney (MDCK) cells against influenza B (Hong Kong/5/72). The following applies: Canis lupus familiaris. In kind it is functional.
The test system of experiment [4] is MDCK. As to the kind of experiment: Concentration required to reduce the viability of MDCK cells. In kind it is functional, Canis lupus familiaris.

For the compound `CCN1CCCCC1C1C2CC3CC(C2)CC1C3` (stereo unspecified), the MIC50 in the experiment on MDCK [1], in the experiment with MDCK [2] and in the experiment on MDCK [3] was over 28 µM in each case. In the experiment on MDCK [4], this compound yielded an MTC50 of 143 µM.
In the case of `CN1CCCCC1C1C2CC3CC(C2)CC1C3` (stereo unspecified), the MIC50 against MDCK [1], in the experiment with MDCK [2] and with MDCK [3] was over 143 µM each time. Moreover, in the experiment with MDCK [4], the MTC50 worked out at 977 µM.
Regarding `C1CCN(CC2CC2)C(C2C3CC4CC(C3)CC2C4)C1` (stereo unspecified), the MIC50 against MDCK [1] is 143 µM (≈ 39.1 µg/mL); in the experiment on MDCK [2], over 143 µM; against MDCK [3] it was over 143 µM. In the experiment on MDCK [4], this compound registered an MTC50 of 977 µM.
With `C1CCC(C2C3CC4CC(C3)CC2C4)NC1` (stereo unspecified), the figures for the MIC50 with MDCK [1], against MDCK [2] and with MDCK [3] were 7.8 µM (≈ 1.71 µg/mL), over 977 µM and over 977 µM, respectively. The MTC50 with MDCK [4] was over 977 µM.
Turning to `NC12CC3CC(CC(C3)C1)C2` [AMANTADINE], the MIC50 with MDCK [1] was found to be 28.3 µM (≈ 4.28 µg/mL). In the experiment on MDCK [4], this compound registered an MTC50 of 1333 µM.
`NC(=O)c1ncn([C@@H]2O[C@H](CO)[C@@H](O)[C@H]2O)n1` [RIBAVIRIN]: the MIC50 came to 31.1 µM (≈ 7.59 µg/mL) with MDCK [1], 41 µM (≈ 10 µg/mL) in the experiment on MDCK [2] and 41 µM (≈ 10 µg/mL) in the experiment with MDCK [3]. Moreover, in the experiment with MDCK [4], the MTC50 is over 1025 µM.
As for `CC(N)C12CC3CC(CC(C3)C1)C2` (stereo unspecified) [RIMANTADINE], the figures for the MIC50 with MDCK [1], in the experiment with MDCK [2] and against MDCK [3] were 20.9 µM (≈ 3.75 µg/mL), over 56 µM and over 93 µM, respectively. In the experiment on MDCK [4], this compound showed an MTC50 of 1160 µM.
